Measurements from ChEMBL document CHEMBL5385929, “Tabersonine Enhances Olaparib Sensitivity through FHL1-Mediated Epithelial-Mesenchymal Transition in an Ovarian Tumor” (J Nat Prod, 2024).
Calls of active or inactive are those of the source. The rule behind the calls is not given here.

Assays:
[1] = tested on: A2780; assay: Downregulation of EMT signalling in human A2780 cells transfected with shFHL1-1 RNA assessed as E-cadherin protein expression at 10 uM by western blot analysis; assay type: functional, cell-based
[2] = tested on: A2780; assay: Downregulation of EMT signalling in human A2780 cells transfected with shFHL1-1 RNA assessed as N-cadherin protein expression at 10 uM by western blot analysis; assay type: functional, cell-based
[3] = tested on: A2780; assay: Upregulation of FHL1 protein expression in human A2780 cells by western blot analysis; assay type: functional, cell-based; conditions: dose 5-20 µM
[4] = tested on: SK-OV-3; assay: Potentiation of olaparib sensitivity in human SK-OV-3 cells transfected with shFLH1-2 RNA assessed as downregulation of EMT signaling by measuring vimentin protein expression at 10 uM in presence of olaparib by western blot analysis; assay type: functional, cell-based
[5] = tested on: A2780; assay: Potentiation of olaparib-induced antitumor activity against shFHL1-1 RNA-transfected human A2780 cells xenografted in BALB/c mouse assessed as decrease in tumor volume at 15 mg/kg, ip co-administered with olaparib for 2 weeks; assay type: functional, organism-based
[6] = tested on: SK-OV-3; assay: Inhibition of cell invasion in human SK-OV-3 cells transfected with shFHL1-2 RNA at 10 uM measured after 48 hrs by Transwell assay; assay type: functional, cell-based
[7] = tested on: SK-OV-3; assay: Inhibition of cell invasion in human SK-OV-3 cells transfected with shFHL1-1 RNA at 10 uM measured after 48 hrs by Transwell assay; assay type: functional, cell-based
[8] = tested on: A2780; assay: Effect on FHL1 mRNA expression in human A2780 cells at 5 to 20 uM by real-time PCR analysis; assay type: functional, cell-based; conditions: dose 5-20 µM
[9] = tested on: SK-OV-3; assay: Downregulation of EMT signalling in human SK-OV-3 cells assessed as downregulation of vimentin protein expression at 10 uM by western blot analysis; assay type: functional, cell-based
[10] = tested on: SK-OV-3; assay: Potentiation of olaparib sensitivity in human SK-OV-3 cells transfected with shFLH1-1 RNA assessed as downregulation of EMT signaling by measuring E-cadherin protein expression at 10 uM in presence of olaparib by western blot analysis; assay type: functional, cell-based
[11] = tested on: SK-OV-3; assay: Effect on FHL1 mRNA expression in human SK-OV-3 cells at 5 to 20 uM by real-time PCR analysis; assay type: functional, cell-based; conditions: dose 5-20 µM
[12] = tested on: SK-OV-3; assay: Potentiation of olaparib sensitivity in human SK-OV-3 cells assessed as inhibition of colony formation at 10 uM incubated for 48 hrs in presence of olaparib followed by drug wash-out and incubated in fresh medium for 2 weeks by crystal violet staining based analysis; assay type: functional, cell-based
[13] = tested on: A2780; assay: Inhibition of cell invasion in human A2780 cells transfected with shFHL1-2 RNA at 10 uM measured after 48 hrs by Transwell assay; assay type: functional, cell-based
[14] = tested on: SK-OV-3; assay: Potentiation of olaparib sensitivity in human SK-OV-3 cells assessed as inhibition of cell migration at 10 uM measured after 24 to 48 hrs in presence of olaparib by wound healing assay; assay type: functional, cell-based; conditions: time 24-48 hrs
[15] = tested on: A2780; assay: Potentiation of olaparib sensitivity in human A2780 cells transfected with shFHL1-1 RNA assessed as inhibition of cell invasion at 10 uM measured after 48 hrs in presence of olaparib by Transwell assay; assay type: functional, cell-based
[16] = tested on: Mus musculus; assay: Potentiation of olaparib sensitivity in BALB/c mouse xenografted with shNC RNA-transfected human A2780 cells assessed as downregulation of N-cadherin protein expression in tumor at 15 mg/kg, ip co-administered with olaparib for 2 weeks by western blot analysis; assay type: functional, organism-based
[17] = tested on: SK-OV-3; assay: Downregulation of EMT signalling in human SK-OV-3 cells transfected with shFHL1-2 RNA assessed as vimentin protein expression at 10 uM by western blot analysis; assay type: functional, cell-based
[18] = tested on: A2780; assay: Potentiation of olaparib sensitivity in human A2780 cells transfected with shFHL1-2 RNA assessed as inhibition of cell migration at 10 uM measured after 24 to 48 hrs in presence of olaparib by wound healing assay; assay type: functional, cell-based; conditions: time 24-48 hrs
[19] = tested on: SK-OV-3; assay: Potentiation of olaparib sensitivity in human SK-OV-3 cells assessed as induction of DNA damage response by measuring increase in tail moment at 10 uM measured after 48 hrs in presence of olaparib by alkaline comet assay; assay type: functional, cell-based
[20] = tested on: A2780; assay: Downregulation of EMT signalling in human A2780 cells assessed as upregulation of E-cadherin protein expression at 10 uM by western blot analysis; assay type: functional, cell-based
[21] = tested on: A2780; assay: Potentiation of olaparib-induced antitumor activity against shNC RNA-transfected human A2780 cells xenografted in BALB/c mouse assessed as decrease in tumor weight at 15 mg/kg, ip co-administered with olaparib for 2 weeks; assay type: functional, organism-based
[22] = tested on: A2780; assay: Antiproliferative activity against human A2780 cells assessed as inhibition of cell viability measured after 48 hrs by CCK8 assay; assay type: functional, cell-based; conditions: A2780, 48 h
[23] = tested on: SK-OV-3; assay: Inhibition of cell migration in human SK-OV-3 cells transfected with shFHL1-1 RNA at 10 uM measured after 24 to 48 hrs by wound healing assay; assay type: functional, cell-based; conditions: time 24-48 hrs
[24] = tested on: SK-OV-3; assay: Potentiation of olaparib sensitivity in human SK-OV-3 cells assessed as downregulation of EMT signaling by measuring upregulation of E-cadherin protein expression at 10 uM in presence of olaparib by western blot analysis; assay type: functional, cell-based
[25] = tested on: A2780; assay: Potentiation of olaparib sensitivity in human A2780 cells transfected with shFLH1-1 RNA assessed as downregulation of EMT signaling by measuring E-cadherin protein expression at 10 uM in presence of olaparib by western blot analysis; assay type: functional, cell-based
[26] = tested on: A2780; assay: Antitumor activity against human A2780 cells xenografted in BALB/c mouse assessed as decrease in tumor volume at 5 to 15 mg/kg, ip administered every other day for 2 weeks; assay type: functional, organism-based; conditions: dose 5-15 mg/kg
[27] = tested on: A2780; assay: Inhibition of cell invasion in human A2780 cells transfected with shFHL1-1 RNA at 10 uM measured after 48 hrs by Transwell assay; assay type: functional, cell-based
[28] = tested on: SK-OV-3; assay: Increase in FHL1 protein stability in human SK-OV-3 cells at 10 uM measured after 6 to 24 hrs in presence of cycloheximide by CHX chase assay based western blot analysis; assay type: functional, cell-based; conditions: time 6-24 hrs
[29] = tested on: Mus musculus; assay: Potentiation of olaparib sensitivity in BALB/c mouse xenografted with shNC RNA-transfected human A2780 cells assessed as downregulation of vimentin protein expression in tumor at 15 mg/kg, ip co-administered with olaparib for 2 weeks by western blot analysis; assay type: functional, organism-based
[30] = tested on: Mus musculus; assay: Potentiation of olaparib sensitivity in BALB/c mouse xenografted with shFHL1-1 RNA-transfected human A2780 cells assessed as upregulation of E-cadherin protein expression in tumor at 15 mg/kg, ip co-administered with olaparib for 2 weeks by western blot analysis; assay type: functional, organism-based
[31] = tested on: SK-OV-3; assay: Potentiation of olaparib sensitivity in human SK-OV-3 cells transfected with shFLH1-1 RNA assessed as downregulation of EMT signaling by measuring N-cadherin protein expression at 10 uM in presence of olaparib by western blot analysis; assay type: functional, cell-based
[32] = tested on: SK-OV-3; assay: Potentiation of olaparib sensitivity in human SK-OV-3 cells transfected with shFHL1-2 RNA assessed as inhibition of cell invasion at 10 uM measured after 48 hrs in presence of olaparib by Transwell assay; assay type: functional, cell-based
[33] = tested on: A2780; assay: Downregulation of EMT signalling in human A2780 cells transfected with shFHL1-1 RNA assessed as vimentin protein expression at 10 uM by western blot analysis; assay type: functional, cell-based

In the case of `CC[C@]12C=CCN3CC[C@]4(C(=C(C(=O)OC)C1)Nc1ccccc14)[C@@H]32` [TABERSONINE], the inhibition [1] is reported as “inactive”, the inhibition [2] is reported as “inactive” and the Activity [3] is reported as “Dose-Dependent Effect”. For the same molecule, the Activity [4] was “inactive”, the Activity [5] was “inactive” and the inhibition [6] was “inactive”. The inhibition [7] was “inactive”, the Activity [8] was “inactive” and the inhibition [9] was “Active”. The Activity [10] was “inactive”, the Activity [11] was “inactive” and the Activity [12] was “Active”. For the same molecule, the inhibition [13] was “inactive”, the Activity [14] was “Active” and the Activity [15] was “inactive”. The Activity [16] was “Active”, the inhibition [17] was “inactive” and the Activity [18] was “inactive”. The Activity [19] was “Active”, the inhibition [20] was “Active” and the Activity [21] was “Active”. For the same molecule, the IC50 [22] was 18 µM, the inhibition [23] was “inactive” and the Activity [24] was “Active”. For the same molecule, the Activity [25] was “inactive”, the Activity [26] was “Active” and the inhibition [27] was “inactive”. The Activity [28] was “Active”, the Activity [29] was “Active” and the Activity [30] was “inactive”. For the same molecule, the Activity [31] was “inactive”, the Activity [32] was “inactive” and the inhibition [33] was “inactive”.
